Reference: ChEMBL document CHEMBL1137072, “Peptide deformylase inhibitors with activity against respiratory tract pathogens” (Bioorg Med Chem Lett, 2004)
Converted amounts (≈) assume the structure as drawn.

Legend:
Staphylococcus capitis = assay: Minimum inhibitory concentration required for primary screening against in-house strain of Staphylococcus capitis tested in vitro; assay type: functional
Escherichia coli = assay: Minimum inhibitory concentration required for primary screening against in-house strain of Escherichia coli tested in vitro; assay type: functional
Peptide deformylase = target: T1, Peptide deformylase (Escherichia coli, UniProt Q9JN24); assay: Inhibitory activity against Escherichia coli peptide deformylase (PDF) Nickel containing enzyme
T1 sequence (Q9JN24 whole entry): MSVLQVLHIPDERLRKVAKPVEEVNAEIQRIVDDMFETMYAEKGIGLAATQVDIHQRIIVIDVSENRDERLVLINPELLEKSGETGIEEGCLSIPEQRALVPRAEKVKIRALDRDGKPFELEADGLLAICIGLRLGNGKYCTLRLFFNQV

Haemophilus influenzae [1] = assay: Minimum inhibitory concentration required for primary screening against in-house strain of Haemophilus influenzae tested in vitro; Range-0.125-2; assay type: functional
Streptococcus pneumoniae [2] = assay: Minimum inhibitory concentration required for primary screening against in-house strain of Streptococcus pneumoniae tested in vitro; Range- 0.5-1; assay type: functional
Moraxella catarrhalis [3] = assay: Minimum inhibitory concentration required for primary screening against in-house strain of Moraxella catarrhalis tested in vitro; assay type: functional
Streptococcus pneumoniae [4] = assay: Minimum inhibitory concentration required for primary screening against in-house strain of Streptococcus pneumoniae tested in vitro; Range- 1-2; assay type: functional
Haemophilus influenzae [5] = assay: Minimum inhibitory concentration required for primary screening against in-house strain of Haemophilus influenzae tested in vitro; Range- 0.25-2; assay type: functional
Haemophilus influenzae [6] = assay: Minimum inhibitory concentration required for primary screening against in-house strain of Haemophilus influenzae tested in vitro; Range- 0.5-4; assay type: functional
Streptococcus pneumoniae [7] = assay: Minimum inhibitory concentration required for primary screening against in-house strain of Streptococcus pneumoniae tested in vitro; Range- 0.06-2; assay type: functional
Moraxella catarrhalis [8] = assay: Minimum inhibitory concentration required for primary screening against in-house strain of Moraxella catarrhalis tested in vitro; Range- 0.015-0.12; assay type: functional
Streptococcus pneumoniae [9] = assay: Minimum inhibitory concentration required for primary screening against in-house strain of Streptococcus pneumoniae tested in vitro; Range- 0.25-0.5; assay type: functional
Streptococcus pneumoniae [10] = assay: Minimum inhibitory concentration required for primary screening against in-house strain of Streptococcus pneumoniae tested in vitro; assay type: functional
Moraxella catarrhalis [11] = assay: Minimum inhibitory concentration required for primary screening against in-house strain of Moraxella catarrhalis tested in vitro; Range- 0.125-0.25; assay type: functional
Haemophilus influenzae [12] = assay: Minimum inhibitory concentration required for primary screening against in-house strain of Haemophilus influenzae tested in vitro; Range- 0.5-8; assay type: functional
Haemophilus influenzae [13] = assay: Minimum inhibitory concentration required for primary screening against in-house strain of Haemophilus influenzae tested in vitro; Range- 0.125-2; assay type: functional

SMILES: CCCC[C@H](CN(O)C=O)C(=O)N[C@H](C(=O)c1ccccc1)C(C)(C)C
- MIC (Staphylococcus capitis): 12.5 µM (≈ 4.53 µg/mL)
- MIC (Escherichia coli): 12.5 µM (≈ 4.53 µg/mL)

SMILES: CCCC[C@H](CN(O)C=O)C(=O)N[C@H](C(=O)c1ccc(NS(C)(=O)=O)cc1)C(C)(C)C
- IC50 (Peptide deformylase): 4 nM

SMILES: CCCC[C@H](CN(O)C=O)C(=O)N[C@H](C(=O)c1ccc(OC)cc1)C(C)(C)C
- IC50 (Peptide deformylase): 1 nM

SMILES: CC(C)(C)[C@H](NC(=O)[C@H](CC1CCCC1)CN(O)C=O)C(=O)c1ccc(S(C)(=O)=O)cc1
- IC50 (Peptide deformylase): 10 nM
- MIC (Staphylococcus capitis): 6.25 µM (≈ 2.92 µg/mL)
- MIC (Escherichia coli): 25 µM (≈ 11.7 µg/mL)

SMILES: CC(C)(C)[C@H](NC(=O)[C@H](CC1CCCC1)CN(O)C=O)C(=O)c1ccc(N2CCN(CCO)CC2)c(F)c1
- MIC (Haemophilus influenzae [1]): < 2 µg/mL
- MIC (Streptococcus pneumoniae [2]): < 1 µg/mL
- MIC (Moraxella catarrhalis [3]): < 0.125 µg/mL

SMILES: CC(C)(C)[C@H](NC(=O)[C@H](CC1CCCC1)CN(O)C=O)C(=O)c1ccc(N2CCN(CCO)CC2)cc1
- IC50 (Peptide deformylase): 2 nM
- MIC (Streptococcus pneumoniae [4]): < 2 µg/mL
- MIC (Moraxella catarrhalis [3]): < 0.125 µg/mL
- MIC (Haemophilus influenzae [5]): < 2 µg/mL

SMILES: CCCC[C@H](CN(O)C=O)C(=O)N[C@H](C(=O)c1ccc(F)cc1)C(C)(C)C
- IC50 (Peptide deformylase): 3 nM

SMILES: CC(C)(C)[C@H](NC(=O)[C@H](CC1CCCC1)CN(O)C=O)C(=O)c1cc(F)c(F)cc1N1CCOCC1
- MIC90 (Haemophilus influenzae [6]): 2 µg/mL (≈ 3.92 µM)
- IC50 (Peptide deformylase): 0.5 nM
- MIC90 (Streptococcus pneumoniae [7]): 1 µg/mL (≈ 1.96 µM)
- MIC (Moraxella catarrhalis [3]): < 0.125 µg/mL
- MIC90 (Moraxella catarrhalis [8]): 0.12 µg/mL (≈ 0.235 µM)
- MIC (Haemophilus influenzae [5]): < 2 µg/mL
- MIC (Streptococcus pneumoniae [9]): < 0.5 µg/mL

SMILES: CC(C)(C)[C@H](NC(=O)[C@H](CC1CCCC1)CN(O)C=O)C(=O)c1ccc(N2CCOCC2)c(F)c1
- MIC (Haemophilus influenzae [6]): < 4 µg/mL
- IC50 (Peptide deformylase): 0.6 nM
- MIC (Moraxella catarrhalis [3]): < 0.125 µg/mL
- MIC (Streptococcus pneumoniae [10]): 0.25 µg/mL (≈ 0.509 µM)

SMILES: CCCC[C@H](CN(O)C=O)C(=O)N[C@H](C(=O)c1ccccn1)C(C)(C)C
- IC50 (Peptide deformylase): 3 nM

SMILES: CCCC[C@H](CN(O)C=O)C(=O)N[C@H](C(=O)c1cc2ccccc2o1)C(C)(C)C
- IC50 (Peptide deformylase): 4 nM
- MIC (Staphylococcus capitis): 1.5 µM (≈ 0.604 µg/mL)

SMILES: CC(C)(C)[C@H](NC(=O)[C@H](CC1CCCC1)CN(O)C=O)C(=O)c1cc2ccccc2o1
- IC50 (Peptide deformylase): 4 nM

SMILES: CC(C)(C)[C@H](NC(=O)[C@H](CC1CCCC1)CN(O)C=O)C(=O)c1ccc(O)cc1
- IC50 (Peptide deformylase): 2 nM
- MIC (Staphylococcus capitis): 3.1 µM (≈ 1.25 µg/mL)
- MIC (Escherichia coli): 6.25 µM (≈ 2.53 µg/mL)

SMILES: COc1ccc(C(=O)[C@@H](NC(=O)[C@H](CC2CCCC2)CN(O)C=O)C(C)(C)C)cc1
- IC50 (Peptide deformylase): 3 nM

SMILES: CC(C)(C)[C@H](NC(=O)[C@H](CC1CCCC1)CN(O)C=O)C(=O)c1ccc(N2CCN(CCN3CCCC3)CC2)c(F)c1
- MIC (Moraxella catarrhalis [11]): < 0.25 µg/mL
- MIC (Haemophilus influenzae [12]): < 8 µg/mL
- IC50 (Peptide deformylase): 9 nM
- MIC (Streptococcus pneumoniae [9]): < 0.5 µg/mL

SMILES: CCCC[C@H](CN(O)C=O)C(=O)N[C@H](C(=O)c1ccc(NC(C)=O)cc1)C(C)(C)C
- IC50 (Peptide deformylase): 8 nM
- MIC (Escherichia coli): 12 µM (≈ 5.03 µg/mL)

SMILES: CC(C)(C)[C@H](NC(=O)[C@H](CC1CCCC1)CN(O)C=O)C(=O)c1ccc(N2CCC(O)CC2)cc1
- IC50 (Peptide deformylase): 2 nM
- MIC (Moraxella catarrhalis [3]): < 0.125 µg/mL
- MIC (Streptococcus pneumoniae [10]): 0.25 µg/mL (≈ 0.513 µM)
- MIC (Haemophilus influenzae [5]): < 2 µg/mL

SMILES: CC(C)(C)[C@H](NC(=O)[C@H](CC1CCCC1)CN(O)C=O)C(=O)c1ccc(F)cc1
- IC50 (Peptide deformylase): 3 nM

SMILES: CC(C)(C)[C@H](NC(=O)[C@H](CC1CCCC1)CN(O)C=O)C(=O)c1cc(F)c(F)cc1N1CCC(O)CC1
- IC50 (Peptide deformylase): 1 nM
- MIC (Moraxella catarrhalis [3]): < 0.125 µg/mL
- MIC (Haemophilus influenzae [5]): < 2 µg/mL
- MIC (Streptococcus pneumoniae [9]): < 0.5 µg/mL

SMILES: CC(C)(C)[C@H](NC(=O)[C@H](CC1CCCC1)CN(O)C=O)C(=O)c1ccc(N2CCC(O)CC2)c(F)c1
- IC50 (Peptide deformylase): 2 nM
- MIC (Moraxella catarrhalis [3]): < 0.125 µg/mL
- MIC (Streptococcus pneumoniae [10]): 0.25 µg/mL (≈ 0.494 µM)
- MIC (Haemophilus influenzae [13]): < 2 µg/mL
